This note sets out measurements from patent US20140271734A1, “BILE ACID RECYCLING INHIBITORS FOR TREATMENT OF BARRETT'S ESOPHAGUS AND GASTROESOPHAGEAL REFLUX DISEASE” (LUMENA PHARMACEUTICALS, INC., priority 2013, published 2014).

Molecules are shown by their SMILES.

In one experiment the test system is serum bile acids. In words: Serum bile acids, ascending multiple oral doses of LUM001 in healthy adults. In kind it is in vivo, human. As to conditions: 28 days. How it is done: This Phase 1 study was a randomized, double-blind, placebo-controlled study of ascending multiple oral doses of LUM001 in healthy, adult subjects. This study was conducted at a single center. There were 13 LUM001 dosing panels: 10, 20, 60, 100, and 20 mg every morning (qAM) (2) (i.e., the regimen was tested a second time in the study), 5 mg every evening (qPM), 0.5, 1, 2.5, 5, 2.5 (2), 5 (2), and 0.5 to 5 mg qAM dose titration. Most of the dosing panels included subjects treated with matching placebo. No subject participated in more than 1 dosing panel. Subjects were randomized into the study by dosing panel, and all subjects within a dosing panel received study medication at approximately the same time each day. Safety was reviewed for each panel before subsequent panels were initiated. A total of 167 subjects were treated for 28 days, 147 with LUM001 and 20 with placebo. […]
On Day 1 of the Treatment Period, subjects who qualified for enrollment were randomized in the order in which they were admitted to the research facility. […] The safety and tolerability of LUM001 were evaluated by physical examination, ascertainment of adverse signs and symptoms, and clinical laboratory studies. […]
SBA were analyzed as part of the routine clinical analysis of the serum samples collected at each time point.

In the next experiment the test system is fecal bile acid (FBA). In words: Fecal bile acids in rats, LUM001 Q.D. for four days. In kind it is in vivo, Wistar rats. As to the method: Male Wistar rats (Charles River Laboratories) weighing 275-300 grams were single-housed in a constant temperature environment with alternating 12 hour light and dark cycles. All animals had continuous access to a commercial rodent diet as well as water. In each study rats were randomly assigned to either vehicle or treatment groups and were administered intragastric doses (Q.D. gavage) of drug dissolved in aqueous 0.2% (v/v) Tween 80 (2 ml kg body weight). The animals were dosed in the morning between 9:00 and 10:00 a.m. for four consecutive days. Fecal samples were collected on papers underneath each cage during the final 48 hour period of the study and analyzed for bile acid content.
Cage papers containing the 48-hour fecal samples were collected at approximately 9:00 a.m. on the final day and used to determine the individual fecal bile acid (FBA) concentration for each animal. Fecal samples from each rat were weighed and a weight of distilled water (1 gram/mL) equal to 2 times the total weight of feces was added to each sample container (e.g., 20 mL water to 10 grams feces). The containers were stored overnight at 4° C. Each sample was homogenized for approximately 45 seconds using a small food processor to yield a homogeneous slurry. 1.4 grams of the homogenate was weighed into 16×100 polypropylene tubes and 2.6 mL of tertiary butanol/distilled water (2:0.6) added to yield a final concentration of 50% (v/v) tertiary butanol in water. The sample was extracted by incubation for 45 minutes in a 37° C. water bath, and subjected to centrifugation at 3000×g for 13 minutes and the supernatant extract collected.
The concentration of bile acids […] in the extract was determined using a 96-well enzymatic assay system (4,5). 20 μl aliquots of each butanol extract was added to two sets of triplicate wells in a 96-well assay plate (one set on each half of the plate). Standardized sodium taurocholate solutions (0.2 and 0.9 mM) and standardized fecal extract solutions (previously made from pooled fecal samples collected from control and drug-treated rats) were analyzed in parallel to provide a bile acid standard curve and internal quality control samples, respectively. 20 μl aliquots of the sodium taurocholate standard were serially diluted to generate a standard curve and were added to two separate sets of triplicate wells.
To each well, 230 μl of reaction mixture containing 1M hydrazine hydrate, 0.1 M pyrophosphate and 0.46 mg/ml NAD was added. To start the reaction, a 50 μl aliquot of either 3a-hydroxysteroid dehydrogenase enzyme (HSD; 0.8 units/ml) or assay buffer (0.1 M sodium pyrophosphate) was added to one set of triplicate wells for each sample, respectively, with the set containing the assay buffer serving as the reaction blank. All reagents were obtained from Sigma Chemical Co., St. Louis, Mo. Following a 60 minute incubation at room temperature, the optical density at 340 nm was measured and the mean of each set of triplicate wells was calculated. The difference in optical density between the corresponding wells containing the HSD enzyme and the wells containing the assay buffer was used to determine the bile acid concentration (mM) of each sample by comparison to the sodium taurocholate standard curve. The bile acid concentration of the extract and the weight of the fecal homogenate (grams) were used to calculate FBA concentration in mmoles/day for each animal. The mean FBA concentration (mmoles/day) of the vehicle group was subtracted from the FBA concentration of individual rats in a treatment group to yield the increase in FBA concentration due to drug treatment for that animal. A mean value for the increase in FBA for each group was determined and compared to the vehicle group used, to determine compound dosing efficacy. Data was the average from the two days of fecal collection (Mean±SEM, n=4-20). […]

`CCCCC1(CCCC)CS(=O)(=O)c2ccc(N(C)C)cc2[C@@H](c2ccc(OCc3ccc(C[N+]45CCN(CC4)CC5)cc3)cc2)[C@H]1O` [LUM001]: the Serum bile acids entry with serum bile acids is recorded as “significant reduction in serum bile acids”. In addition, the Fecal Bile Acids in the experiment with fecal bile acid (FBA) (Q.D. 0.0006 mg/kg/day) stood at 34 µmol/day; in the experiment with fecal bile acid (FBA) (Q.D. 0.002 mg/kg/day) it was 26.6 µmol/day; in the experiment on fecal bile acid (FBA) (Q.D. 0.003 mg/kg/day), 31.3 µmol/day; in the experiment on fecal bile acid (FBA) (Q.D. 0.008 mg/kg/day), 25.8 µmol/day; in the experiment with fecal bile acid (FBA) (Q.D. 0.016 mg/kg/day), 41.6 µmol/day; with fecal bile acid (FBA) (Q.D. 0.04 mg/kg/day), 44 µmol/day. The Fecal Bile Acids with fecal bile acid (FBA) (Q.D. 0.08 mg/kg/day) is 55.6 µmol/day; in the experiment on fecal bile acid (FBA) (Q.D. 0.2 mg/kg/day) it was 62.7 µmol/day; in the experiment on fecal bile acid (FBA) (Q.D. 0.4 mg/kg/day) it was 62.3 µmol/day; in the experiment on fecal bile acid (FBA) (Q.D. 2 mg/kg/day) it was 71.6 µmol/day; with fecal bile acid (FBA) (all doses, Q.D. gavage for four days) it was “significantly increased fecal bile acids for all doses”. The Fecal Bile Acids, Increase over Vehicle (Delta) worked out at 12.1 µmol/day with fecal bile acid (FBA) (Q.D. 0.0006 mg/kg/day); 4.1 µmol/day in the experiment on fecal bile acid (FBA) (Q.D. 0.002 mg/kg/day); 10.7 µmol/day with fecal bile acid (FBA) (Q.D. 0.003 mg/kg/day); 5.9 µmol/day in the experiment with fecal bile acid (FBA) (Q.D. 0.008 mg/kg/day); 24.7 µmol/day in the experiment with fecal bile acid (FBA) (Q.D. 0.016 mg/kg/day); 21.7 µmol/day with fecal bile acid (FBA) (Q.D. 0.04 mg/kg/day). The Fecal Bile Acids, Increase over Vehicle (Delta) with fecal bile acid (FBA) (Q.D. 0.08 mg/kg/day) was found to be 35.2 µmol/day; in the experiment with fecal bile acid (FBA) (Q.D. 0.2 mg/kg/day) it was 40.8 µmol/day; with fecal bile acid (FBA) (Q.D. 0.4 mg/kg/day) it was 47 µmol/day; in the experiment with fecal bile acid (FBA) (Q.D. 2 mg/kg/day) it was 54.6 µmol/day.
